PMC6536897, “Phosphorylation of Glutamine Synthetase on Threonine 301 Contributes to Its Inactivation During Epilepsy” (Frontiers in Molecular Neuroscience, 2019)

Tests used:
[1] = biological target: T1, Glutamine synthetase (GS) (Mus musculus, UniProt P15105); assay: thermal shift (SyproOrange differential scanning fluorimetry); assay type: binding; conditions: varying MgCl2 and ATP; HEPES pH 7.5, 300 mM NaCl, 10% glycerol, 500 μM TCEP
T1 construct: gene Glul; pET-24a(+) plasmid pNG189, codon optimised; E. coli BL21(DE3); HisTrap and Superdex 200; homomeric decamer

[2] = biological target: T2, Glutamine synthetase (GS) (Mus musculus, UniProt P15105, T301A); assay: gamma-glutamyl hydroxamate assay, absorbance […] nm; assay type: biochemical
T2 construct: gene Glul; pET-24a(+) plasmid pNG189, codon optimised; E. coli BL21(DE3); HisTrap and Superdex 200; homomeric decamer

[3] = biological target: T1, Glutamine synthetase (GS); assay: gamma-glutamyl hydroxamate assay, absorbance […] nm; assay type: biochemical
[4] = biological target: T3, Glutamine synthetase (GS) (Mus musculus, UniProt P15105, T301E); assay: gamma-glutamyl hydroxamate assay, absorbance […] nm; assay type: biochemical
T3 construct: gene Glul; pET-24a(+) plasmid pNG189, codon optimised; E. coli BL21(DE3); HisTrap and Superdex 200; homomeric decamer

[5] = biological target: T4, Glutamine synthetase (GS) (Mus musculus, UniProt P15105, T301V); assay: gamma-glutamyl hydroxamate assay, absorbance […] nm; assay type: biochemical
T4 construct: gene Glul; pET-24a(+) plasmid pNG189, codon optimised; E. coli BL21(DE3); HisTrap and Superdex 200; homomeric decamer

purified protein = substrate: N[C@@H](CCC(=O)O)C(=O)O; assay: purified protein; assay type: biochemical, Mus musculus; conditions: unphosphorylated GS (PKA + PKI), 20 mM ATP, 20 mM hydroxylamine, 20 mM MgCl2, imidazole pH 7.4, room temperature

T3 sequence (P15105 2-373 T301E): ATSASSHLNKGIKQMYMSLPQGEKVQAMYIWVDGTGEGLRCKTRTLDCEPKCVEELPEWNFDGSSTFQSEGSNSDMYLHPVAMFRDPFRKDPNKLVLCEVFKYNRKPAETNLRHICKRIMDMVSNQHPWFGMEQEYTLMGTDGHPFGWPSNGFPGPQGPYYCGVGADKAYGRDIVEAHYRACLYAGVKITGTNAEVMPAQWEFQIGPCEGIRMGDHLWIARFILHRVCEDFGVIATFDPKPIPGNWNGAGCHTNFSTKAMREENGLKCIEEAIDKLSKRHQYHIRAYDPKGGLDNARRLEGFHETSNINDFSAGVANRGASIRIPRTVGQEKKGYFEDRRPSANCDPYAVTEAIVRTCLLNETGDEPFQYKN
T4 sequence (P15105 2-373 T301V): as the sequence (P15105 2-373 T301E) above, with E300V counted along it
T2 sequence (P15105 2-373 T301A): as the sequence (P15105 2-373 T301E) above, with E300A counted along it

Nc1ncnc2c1ncn2[C@@H]1O[C@H](COP(=O)(O)OP(=O)(O)OP(=O)(O)O)[C@@H](O)[C@H]1O [ATP]
Tm [1]: incubation with MgATP increased their melting temperatures to similar extents

CS(=N)(=O)CC[C@H](N)C(=O)O (stereo partly drawn) [methionine sulfoximine]
IC50 [2]: > 100 mM | IC50 [3]: 0.182 ± 0.014 mM | IC50 [4]: > 100 mM | IC50 [5]: 7.6 ± 0.5 mM

B1: Glutamine synthetase (GS) (Mus musculus) (protein)
chain: ATSASSHLNKGIKQMYMSLPQGEKVQAMYIWVDGTGEGLRCKTRTLDCEPKCVEELPEWNFDGSSTFQSEGSNSDMYLHPVAMFRDPFRKDPNKLVLCEVFKYNRKPAETNLRHICKRIMDMVSNQHPWFGMEQEYTLMGTDGHPFGWPSNGFPGPQGPYYCGVGADKAYGRDIVEAHYRACLYAGVKITGTNAEVMPAQWEFQIGPCEGIRMGDHLWIARFILHRVCEDFGVIATFDPKPIPGNWNGAGCHTNFSTKAMREENGLKCIEEAIDKLSKRHQYHIRAYDPKGGLDNARRLTGFHETSNINDFSAGVANRGASIRIPRTVGQEKKGYFEDRRPSANCDPYAVTEAIVRTCLLNETGDEPFQYKN
notes: pET-24a(+) plasmid pNG189, codon optimised; E. coli BL21(DE3); HisTrap and Superdex 200; homomeric decamer
Km (purified protein): 21 ± 1 mM
